This passage reports IC50 results from patent EP1345943B1, “INHIBITORS OF PAPILLOMA VIRUS” (BOEHRINGER INGELHEIM (CANADA) LTD., priority 2000, dated 2002).

The assay concerns the target E1-E2-DNA complex (Human papillomavirus 11, UniProt P04015). The assay is described as follows: E2-dependent E1 DNA binding assay (E1-E2 DNA assay). To be noted: E1-E2 DNA assay of Example 11, HPV-11. As for the experimental part:
This particular assay determines the ability of a test compound to inhibit the activity (IC50) of HPV-11 DNA replication. More specifically, in the assay described herein, the inhibitory activity of the test compound is evaluated based on its ability to interfere with the E1-E2-DNA origin of replication interaction, thereby inhibiting initiation of viral DNA replication.
This assay was modeled on a similar assay for SV40 T Antigen described by McKay (J. Mol. Biol., 1981,145:471). A 400bp radiolabeled DNA probe, containing the -HPV-11 origin of replication (Chiang et al.., 1992, Proc. Natl.-Acad. Sci. USA 89:5799) was produced by pcr, using plasmid pBluescript™ SK encoding the origin (nucleotides 7886-61 of the HPV-11 genome in unique BAMH1 site) as template and primers flanking the origin. Radiolabel was incorporated as [33p]dCTP. Binding assay buffer consisted of: 20 mM Tris pH 7.6, 100 mM NaCI, 1 mM DTT, 1 mM EDTA.
Other reagents used were protein A-SPA beads (type II, Amersham) and K72 rabbit polyclonal antiserum, raised against a peptide corresponding to the C-terminal 14 amino acids of HPV-11 E1. Following the protocol from Amersham, one bottle of beads was mixed with 25 mL of binding assay buffer. For the assay, a saturating amount of K72 antiserum was added to the beads and the mixture was incubated for 1 h, washed with one volume of binding assay buffer, and then resuspended in the same volume of fresh binding assay buffer. Binding reactions contained 8 ng of E2, approximately 100-200 ng of purified E1, and 0.4 ng of radiolabeled probe in a total of 80 µL of binding assay buffer. After 1 h at room temperature, 25 µL of K72 antibody-SPA bead suspension was added to with the binding reaction and mixed. After an additional hour of incubation at room temperature, the reactions were centrifuged briefly to pellet the beads and the extent of complex formation was determined by scintillation counting on a Packard TopCount™. Typically, the signal for reactions containing E1 and E2 was 20-30 fold higher than the background observed when either E1, E2, or both was omitted.

E1-E2-DNA complex, sequence (P04015 whole entry, one chain of several): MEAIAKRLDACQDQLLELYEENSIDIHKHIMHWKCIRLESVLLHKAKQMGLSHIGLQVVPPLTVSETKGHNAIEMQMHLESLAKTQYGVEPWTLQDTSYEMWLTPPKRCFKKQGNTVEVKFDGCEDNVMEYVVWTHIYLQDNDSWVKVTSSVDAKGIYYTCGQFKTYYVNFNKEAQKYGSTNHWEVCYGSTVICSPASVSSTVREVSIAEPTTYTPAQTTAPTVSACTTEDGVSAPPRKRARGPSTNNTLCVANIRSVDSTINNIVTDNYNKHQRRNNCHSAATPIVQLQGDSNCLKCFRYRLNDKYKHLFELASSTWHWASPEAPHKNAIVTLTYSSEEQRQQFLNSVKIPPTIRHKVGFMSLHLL

As for `COC(=O)C1C(C(=O)Nc2ccc3c(c2)OCO3)C(c2ccc(Cl)cc2)OC12C(=O)c1ccccc1C2=O` (stereo not drawn) [Compound 1017], the IC50 is 5 to 50 µM.

The molecule `COc1ccc2c(c1)C(=O)C1(OC(c3ccc(Cl)c(Cl)c3)C(C(=O)Nc3ccc(C(C)=O)cc3)C1C(=O)O)C2=O` (stereo not drawn) [Compound 1130] yielded an IC50 of 5 to 50 µM.

On to `Cc1cc2c(cc1F)C(=O)C13OC(c4ccc(Br)c(Br)c4)C(C(=O)Nc4ccc(N5CCOCC5)cc4)C1C(=O)OC23O` (single isomer, unassigned) [Compound B1008], for which the IC50 is less than 0.5 µM.

For the molecule `O=C(Nc1ccc(C2CCCCC2)cc1)C1C(c2ccc(Cl)c(Cl)c2)OC2(C(=O)c3ccccc3C2=O)C1C(=O)O` (stereo not drawn) [Compound 1054], the IC50 was less than 0.5 µM.

Regarding `Cc1ccc2nc(-c3ccc(NC(=O)C4C(c5ccc(Cl)c(Cl)c5)OC5(C(=O)c6ccccc6C5=O)C4C(=O)O)cc3)sc2c1` (stereo not drawn) [Compound 1028], the IC50 was less than 0.5 µM.

Consider `CC(=O)c1ccc(NC(=O)C2C(c3ccc(Cl)c(Cl)c3)OC34C(=O)c5cc(C)sc5C3(O)OC(=O)C24)cc1` (single isomer, unassigned) [Compound D1001], for which the IC50 was less than 0.5 µM.

As to `O=C(c1ccccc1)c1cccc(NC(=O)C2C(c3ccc(Cl)c(Cl)c3)OC3(C(=O)c4ccccc4C3=O)C2C(=O)O)c1` (stereo not drawn) [Compound 1100], the IC50 lay within 0.5 to 5 µM.

Consider `CC(=O)c1ccc(NC(=O)C2C(c3ccc(Cl)cc3)OC3(C(=O)c4ccccc4C3=O)C2C(=O)O)cc1` (stereo not drawn) [Compound 1005], for which the IC50 lay within 5 to 50 µM.

With `CCCCC(=O)Nc1cc(C2OC3(C(=O)c4ccccc4C3=O)C(C(=O)O)C2C(=O)Nc2ccc(C(C)=O)cc2)ccc1Cl` (stereo not drawn) [Compound 1141], the IC50 is 0.5 to 5 µM.

For the molecule `O=C(Nc1ccccc1)C1C(c2ccc(Br)c(Br)c2)OC2(C(=O)c3ccccc3C2=O)C1C(=O)O` (racemic) [Compound 1074], the IC50 was less than 0.5 µM.

As for `O=C1C2C(c3ccc(Cl)cc3)OC3(C(=O)c4ccccc4C3=O)C2C(=O)N1c1ccc(F)cc1` (stereo not drawn) [Compound 2004], the IC50 lay in the range of 5 to 50 µM.

`O=C(Nc1ccc(Oc2ccccc2)cc1)C1C(c2ccc(Cl)c(Cl)c2)OC2(C(=O)c3ccccc3C2=O)C1C(=O)O` (stereo not drawn) [Compound 1049] had an IC50 of 0.5 to 5 µM.

Consider `CC(=O)c1ccc(NC(=O)C2C(c3ccc(C)c(C)c3)OC3(C(=O)c4ccccc4C3=O)C2C(=O)O)cc1` (stereo not drawn) [Compound 1056], for which the IC50 fell in the range of 0.5 to 5 µM.

With `O=C(Nc1ccc2c(c1)OCO2)C1C(c2cccc(Cl)c2)OC2(C(=O)c3ccccc3C2=O)C1C(=O)O` (stereo not drawn) [Compound 1015], the 50% inhibitory concentration (IC50) lay in the range of 0.5 to 5 µM.

Consider `O=C1C2C(c3ccc(Cl)cc3)OC3(C(=O)c4ccccc4C3=O)C2C(=O)N1c1ccc(Cl)cc1` (stereo not drawn) [Compound 2007], for which the half-inhibitory concentration (IC50) lay in the range of 5 to 50 µM.

The molecule `O=C(Nc1ccc2c(c1)OCO2)C1C(c2ccc(I)cc2)OC2(C(=O)c3ccccc3C2=O)C1C(=O)O` (stereo not drawn) [Compound 1039] displayed an IC50 of 0.5 to 5 µM.

In the case of `Cc1ccc2c(c1)C(=O)C13OC(c4ccc(Br)c(Br)c4)C(C(=O)NCCc4ccccc4Cl)C1C(=O)OC23O` (single isomer, unassigned) [Compound B1006], the IC50 was in the range of 0.5 to 5 µM.

Turning to `CC(=O)c1ccc(NC(=O)C2C(C=Cc3ccccc3C)OC3(C(=O)c4ccccc4C3=O)C2C(=O)O)cc1` (stereo not drawn) [Compound 4011], the IC50 was in the range of 5 to 50 µM.

As for `O=C(Nc1ccc(OC(F)(F)F)cc1)C1C(c2ccc(Cl)c(Cl)c2)OC2(C(=O)c3ccccc3C2=O)C1C(=O)O` (stereo not drawn) [Compound 1112], the IC50 is 0.5 to 5 µM.

`O=C(NCCc1ccccc1Cl)C1C(c2ccc(Cl)c(Cl)c2)OC2(C(=O)c3ccccc3C2=O)C1C(=O)O` (stereo not drawn) [Compound 1135] came in with an IC50 of less than 0.5 µM.

`CC(=O)c1ccc(NC(=O)C2C(c3cccc(Cl)c3)OC3(C(=O)c4ccccc4C3=O)C2C(=O)O)cc1` (stereo not drawn) [Compound 1032] gave a concentration for half-maximal inhibition (IC50) of 0.5 to 5 µM.

Molecule `Cc1cccc2c1C(=O)C1(OC(c3ccc(Cl)c(Cl)c3)C(C(=O)Nc3ccc4c(c3)OCO4)C1C(=O)O)C2=O` (stereo not drawn) [Compound 1041] had a 50% inhibitory concentration (IC50) of 0.5 to 5 µM.

`COc1ccccc1NC(=O)C1C(c2ccc(Cl)c(Cl)c2)OC2(C(=O)c3ccccc3C2=O)C1C(=O)O` (stereo not drawn) [Compound 1124] came in with an IC50 of 0.5 to 5 µM.

In turn, `CC(C)(C)OC(=O)Nc1ccc(N2C(=O)C3C(c4ccc(Cl)c(Cl)c4)OC4(C(=O)c5ccccc5C4=O)C3C2=O)cc1` (stereo not drawn) [Compound 2018] displayed a half-maximal inhibitory concentration (IC50) of 5 to 50 µM.

Molecule `O=C(Nc1ccc2c(c1)OCO2)C1C(c2ccc(F)c(Cl)c2)OC2(C(=O)c3ccccc3C2=O)C1C(=O)O` (stereo not drawn) [Compound 1030] yielded an IC50 of 0.5 to 5 µM.

`O=C(Nc1ccc2c(c1)OCO2)C1C(c2cc3ccccc3o2)OC2(C(=O)c3ccccc3C2=O)C1C(=O)O` (stereo not drawn) [Compound 4002]: the concentration for half-maximal inhibition (IC50) is 5 to 50 µM.

`O=C(NCc1ccccc1)C1C(c2ccc(Cl)c(Cl)c2)OC23C(=O)c4ccccc4C2(O)OC(=O)C13` (racemic) [Compound 3011] yielded an IC50 of 0.5 to 5 µM.

In turn, `O=C(Nc1ccc2c(c1)OCO2)C1C(c2cccc(C(F)(F)F)c2)OC2(C(=O)c3ccccc3C2=O)C1C(=O)O` (stereo not drawn) [Compound 1031] showed an IC50 of 0.5 to 5 µM.

Molecule `O=C(Nc1ccc(-c2csnn2)cc1)C1C(c2ccc(Br)c(Br)c2)OC2(C(=O)c3ccccc3C2=O)C1C(=O)O` (single isomer, unassigned) [Compound A1002] returned an IC50 of less than 0.5 µM.

`CC(=O)Nc1ccc(NC(=O)C2C(c3ccc(Br)c(Br)c3)OC3(C(=O)c4ccccc4C3=O)C2C(=O)O)cc1` (stereo not drawn) [Compound 1092]: the IC50 was less than 0.5 µM.

In turn, `O=C(Nc1ccc(Br)c(Cl)c1)C1C(c2ccc(Cl)c(Cl)c2)OC2(C(=O)c3ccccc3C2=O)C1C(=O)O` (stereo not drawn) [Compound 1104] registered an IC50 of 0.5 to 5 µM.

`CC(=O)c1ccc(N2C(=O)C3C(c4ccc(Cl)c(Cl)c4)OC4(C(=O)c5ccccc5C4=O)C3C2=O)cc1` (racemic) [Compound 2016] yielded a half-maximal inhibitory concentration (IC50) of 0.5 to 5 µM.

Consider `CC(=O)c1ccc(NC(=O)C2C(c3ccc(C(F)(F)F)c(F)c3)OC3(C(=O)c4ccccc4C3=O)C2C(=O)O)cc1` (stereo not drawn) [Compound 1067], for which the IC50 is 5 to 50 µM.

As for `Cc1ccc(NC(=O)C2C(c3ccc(F)c(F)c3)OC3(C(=O)c4ccccc4C3=O)C2C(=O)O)cc1` (stereo not drawn) [Compound 1132], the IC50 fell in the range of 5 to 50 µM.

Take `O=C(Nc1ccc(OC(F)(F)F)cc1)C1C(c2ccc(F)c(Cl)c2)OC2(C(=O)c3ccccc3C2=O)C1C(=O)O` (stereo not drawn) [Compound 1131]: the IC50 is 0.5 to 5 µM.

The molecule `O=C(Nc1ccc(Cl)cc1)C1C(c2ccc(Cl)cc2)OC2(C(=O)c3ccccc3C2=O)C1C(=O)O` (stereo not drawn) [Compound 1010] gave an IC50 of 5 to 50 µM.

As for `O=C(NC1CCCCC1)C1C(c2ccc(Cl)cc2)OC23C(=O)c4ccccc4C2(O)OC(=O)C13` (racemic) [Compound 3002], the half-maximal inhibitory concentration (IC50) was 5 to 50 µM.

The molecule `CC(=O)c1ccc(NC(=O)C2C(c3ccc(Cl)c(Cl)c3)OC3(C(=O)c4ccc(F)cc4C3=O)C2C(=O)O)cc1` (stereo not drawn) [Compound 1107] had an IC50 of 0.5 to 5 µM.

As for `O=C(Nc1ccc(N2CCOCC2)cc1)C1C(c2ccc(Br)c(Br)c2)OC2(C(=O)c3ccc(F)cc3C2=O)C1C(=O)O` (stereo not drawn) [Compound 1144], the IC50 was less than 0.5 µM.

For the molecule `CC(=O)c1ccc(NC(=O)C2C(c3cccc(Cl)c3)OC3(C(=O)c4ccccc4C3=O)C2C(=O)O)cc1` (stereo not drawn) [Compound 1044], the IC50 lay within 5 to 50 µM.

Consider `O=C(Nc1ccc2c(c1)OCO2)C1C(c2cc(Cl)cc(Cl)c2)OC23C(=O)c4ccccc4C2(O)OC(=O)C13` (racemic) [Compound 3001], for which the IC50 was in the range of 0.5 to 5 µM.

Molecule `CC(=O)c1ccc(NC(=O)C2C(c3ccc(Cl)c(Cl)c3)OC3(C(=O)c4ccccc4C3=O)C2C(=O)O)cc1` (stereo not drawn) [Compound 1021] yielded an IC50 of less than 0.5 µM.

By IC50 is commonly meant the midpoint of a concentration-inhibition curve. Higher therefore signals a need for much substance.
